Values quoted from earlier work in patent US20140112913A1, “METHODS OF PROGNOSING AND ADMINISTERING TREATMENT FOR INFLAMMATORY DISORDERS” (Genqual Corporation, priority 2011, published 2014).

Details: treatment of rheumatoid arthritis; patients who failed adequate treatment with other approved therapies

For “Actemra: anti-IL-6 humanized mAb against soluble and cellular IL-6 receptor”, the “failure rate due to side effects or lack of efficacy” value is given as “around one-third”.
